According to PubChem BioAssay (NCI):
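Each compound was tested at five concentrations against cells in 96-well plates for 48 hours. Here, GI50 denotes the concentration required for 50% inhibition of growth. TGI denotes the concentration required for complete inhibition of growth.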 Residues, ends and D or L forms follow the SMILES beside them. *: point of attachment. Cbz = O=C(OCc1ccccc1)*

How the values were obtained:
Assay in all cases: DTP human tumour cell line panel, 48 h
[1] = test system: MALME-3M melanoma
[2] = test system: NCI/ADR-RES ovarian
[3] = test system: M14 melanoma
[4] = test system: ACHN renal
[5] = test system: LOX IMVI melanoma
[6] = test system: HOP-92 NSCLC
[7] = test system: SK-MEL-2 melanoma
[8] = test system: TK-10 renal
[9] = test system: NCI-H460 lung
[10] = test system: SNB-75 CNS
[11] = test system: EKVX NSCLC
[12] = test system: NCI-H522 lung
[13] = test system: OVCAR-3 ovarian
[14] = test system: UACC-257 melanoma
[15] = test system: BT-549 breast
[16] = test system: SF-295 CNS
[17] = test system: KM12 colon
[18] = test system: SK-MEL-5 melanoma
[19] = test system: OVCAR-4 ovarian
[20] = test system: PC-3 prostate
[21] = test system: IGROV1 ovarian
[22] = test system: HCT-15 colon
[23] = test system: SN12C renal
[24] = test system: HS 578T breast
[25] = test system: SK-MEL-28 melanoma
[26] = test system: OVCAR-5 ovarian
[27] = test system: UACC-62 melanoma
[28] = test system: HOP-62 NSCLC
[29] = test system: MDA-MB-435
[30] = test system: HT29 colon
[31] = test system: NCI-H23 lung
[32] = test system: CCRF-CEM leukemia
[33] = test system: RPMI-8226 leukemia
[34] = test system: A549 NSCLC
[35] = test system: NCI-H226 lung
[36] = test system: SNB-19 CNS
[37] = test system: UO-31 renal
[38] = test system: K-562 leukemia
[39] = test system: MOLT-4 leukemia
[40] = test system: HL-60(TB) leukemia
[41] = test system: MCF7 breast
[42] = test system: COLO 205 colon
[43] = test system: SK-OV-3 ovarian
[44] = test system: T-47D breast
[45] = test system: SF-268 CNS
[46] = test system: 786-0 renal
[47] = test system: SR leukemia
[48] = test system: OVCAR-8 ovarian
[49] = test system: CAKI-1 renal
[50] = test system: SW-620 colon
[51] = test system: U251 CNS
[52] = test system: DU-145 prostate
[53] = test system: A498 renal
[54] = test system: HCC-2998 colon
[55] = test system: MDA-MB-231 breast
[56] = test system: RXF 393 renal
[57] = test system: SF-539 CNS
[58] = test system: HCT-116 colon

O=C(O)C12CCC(CC1=O)C2 (stereo not drawn)
TGI [1]: > 100000 nM | TGI [2]: > 100000 nM | TGI [3]: > 100000 nM | TGI [4]: > 100000 nM | TGI [5]: > 100000 nM | TGI [6]: > 100000 nM | TGI [7]: > 100000 nM | TGI [8]: > 100000 nM | TGI [9]: > 100000 nM | TGI [10]: > 100000 nM | TGI [11]: > 100000 nM | TGI [12]: > 100000 nM | TGI [13]: > 100000 nM | TGI [14]: > 100000 nM | TGI [15]: > 100000 nM | TGI [16]: > 100000 nM | TGI [17]: > 100000 nM | TGI [18]: > 100000 nM | TGI [19]: > 100000 nM | TGI [20]: > 100000 nM | TGI [21]: > 100000 nM | TGI [22]: > 100000 nM | TGI [23]: > 100000 nM | TGI [24]: > 100000 nM | TGI [25]: > 100000 nM | TGI [26]: > 100000 nM | TGI [27]: > 100000 nM | TGI [28]: > 100000 nM | TGI [29]: > 100000 nM | TGI [30]: > 100000 nM | TGI [31]: > 100000 nM | TGI [32]: > 100000 nM | TGI [33]: > 100000 nM | TGI [34]: > 100000 nM | TGI [35]: > 100000 nM | TGI [36]: > 100000 nM | TGI [37]: > 100000 nM | TGI [38]: > 100000 nM | TGI [39]: > 100000 nM | TGI [40]: > 100000 nM | TGI [41]: > 100000 nM | TGI [42]: > 100000 nM | TGI [43]: > 100000 nM | TGI [44]: > 100000 nM | TGI [45]: > 100000 nM | TGI [46]: > 100000 nM | TGI [47]: > 100000 nM | TGI [48]: > 100000 nM | TGI [49]: > 100000 nM | TGI [50]: > 100000 nM | TGI [51]: > 100000 nM

CC(C)C[C@@H](C=O)NC(=O)[C@H](CC(C)C)NC(=O)[C@H](CC(C)C)NC(=O)OCc1ccccc1 (Cbz-Leu-Leu-Leu-aldehyde)
GI50 [2]: 3260 nM | TGI [2]: > 100000 nM | GI50 [52]: 530 nM | TGI [52]: 10600 nM | GI50 [3]: 338 nM | TGI [3]: 1740 nM | GI50 [4]: 357 nM | TGI [4]: 1980 nM | GI50 [5]: 206 nM | TGI [5]: 460 nM | GI50 [6]: 319 nM | TGI [6]: 797 nM | GI50 [7]: 483 nM | TGI [7]: 3280 nM | GI50 [8]: 270 nM | TGI [8]: 893 nM | GI50 [9]: 455 nM | TGI [9]: 2020 nM | GI50 [11]: 682 nM | TGI [11]: > 100000 nM | GI50 [12]: 212 nM | TGI [12]: 614 nM | GI50 [13]: 225 nM | TGI [13]: 538 nM | GI50 [14]: 251 nM | TGI [14]: 628 nM | GI50 [53]: 424 nM | TGI [53]: 2220 nM | GI50 [15]: 337 nM | TGI [15]: 1250 nM | GI50 [16]: 390 nM | TGI [16]: 1770 nM | GI50 [17]: 281 nM | TGI [17]: 751 nM | GI50 [18]: 349 nM | TGI [18]: 1080 nM | GI50 [20]: 479 nM | TGI [20]: 2910 nM | GI50 [21]: 444 nM | TGI [21]: 3080 nM | GI50 [22]: 465 nM | TGI [22]: 10200 nM | GI50 [23]: 315 nM | TGI [23]: 1010 nM | GI50 [24]: 437 nM | TGI [24]: > 100000 nM | GI50 [54]: 240 nM | TGI [54]: 631 nM | GI50 [55]: 328 nM | TGI [55]: 1210 nM | GI50 [25]: 419 nM | TGI [25]: 11600 nM | GI50 [26]: 643 nM | TGI [26]: 4740 nM | GI50 [27]: 235 nM | TGI [27]: 548 nM | GI50 [30]: 268 nM | TGI [30]: 647 nM | GI50 [31]: 422 nM | TGI [31]: 2990 nM | GI50 [32]: 378 nM | TGI [32]: 64200 nM | GI50 [33]: 356 nM | TGI [33]: 13800 nM | GI50 [34]: 578 nM | TGI [34]: 12800 nM | GI50 [36]: 829 nM | TGI [36]: > 100000 nM | GI50 [37]: 252 nM | TGI [37]: 943 nM | GI50 [38]: 368 nM | TGI [38]: > 100000 nM | GI50 [39]: 322 nM | TGI [39]: 11900 nM | GI50 [40]: 330 nM | TGI [40]: 1890 nM | GI50 [41]: 422 nM | TGI [41]: 14000 nM | GI50 [42]: 404 nM | TGI [42]: 1620 nM | GI50 [43]: 614 nM | TGI [43]: 5340 nM | GI50 [44]: 222 nM | TGI [44]: 598 nM | GI50 [45]: 297 nM | TGI [45]: 1450 nM | GI50 [46]: 349 nM | TGI [46]: 1400 nM | GI50 [56]: 199 nM | TGI [56]: 371 nM | GI50 [57]: 256 nM | TGI [57]: 703 nM | GI50 [47]: 366 nM | TGI [47]: 86600 nM | GI50 [48]: 523 nM | TGI [48]: 4660 nM | GI50 [58]: 294 nM | TGI [58]: 1040 nM | GI50 [50]: 355 nM | TGI [50]: 2070 nM | GI50 [51]: 332 nM | TGI [51]: 1070 nM
